Measured values taken from ChEMBL document CHEMBL5154765, “Design, synthesis, and biological evaluation of novel spiro[pyrrolidine-2,3'-quinolin]-2'-one derivatives as potential chitin synthase inhibitors and antifungal agents” (Eur J Med Chem, 2022).
Values after ≈ are worked out from the molar mass of the structure shown. *1 amine or outer side, *2 acyl side, *3 side chain or, on linkers, in order; H or OH if unused. Where a SMILES comes first, the peptide text is derived from it. Bridges are numbered along the chain shown (N, C = ends). [ ]: non-standard residue; d: D form. The star is where a group is joined. hTyr(3S-OH,4S-OH,3'-OSO3H) = N[C@H](C(=O)O)[C@H](O)[C@@H](O)c1ccc(O)c(OS(=O)(=O)O)c1; Orn(4R-OH,5R-OH) = O=C([C@H](C[C@@H](O)[C@@H](O)N[*:3])N[*:1])[*:2]; Pro(3S-OH,4S-Me) = C[C@H]1CN[C@H](C(=O)O)[C@H]1O; X1 = CCCCCOc1ccc(-c2cc(-c3ccc(C(=O)*)cc3)no2)cc1; Gln(3R-OH) = NC(=O)C[C@@H](O)[C@H](N)C(=O)O; Hyp = O=C(O)[C@@H]1C[C@@H](O)CN1

Legend:
Aspergillus fumigatus [1] = assay: Antifungal activity against Aspergillus fumigatus GIMCC 3.19 assessed as reduction in fungal growth incubated for 24 hrs by two fold broth dilution method; assay type: functional
Aspergillus fumigatus [2] = assay: Antifungal activity against Aspergillus fumigatus GIMCC 3.19 assessed as reduction in fungal growth in presence of sorbitol incubated for 24 hrs by two fold broth dilution method; assay type: functional
Candida albicans [3] = assay: Antifungal activity against Candida albicans ATCC 76615 assessed as reduction in fungal growth in presence of sorbitol incubated for 24 hrs by two fold broth dilution method; assay type: functional
Aspergillus flavus [4] = assay: Antifungal activity against Aspergillus flavus ATCC 16870 assessed as reduction in fungal growth incubated for 24 hrs by two fold broth dilution method; assay type: functional
Candida tropicalis = assay: Inhibition of Candida tropicalis ATCC750 chitin synthase at 300 ug/ml using UDP-GlcNAc as substrate incubated for 1 hr by microplate reader analysis relative to control; conditions: dose 300.0 µg/ml
[5] = Inhibition of Candida tropicalis ATCC750 chitin synthase using UDP-GlcNAc as substrate incubated for 1 hr by microplate reader analysis
Cryptococcus neoformans [6] = assay: Antifungal activity against Cryptococcus neoformans ATCC 32719 assessed as reduction in fungal growth in presence of sorbitol incubated for 24 hrs by two fold broth dilution method; assay type: functional
Candida albicans [7] = assay: Antifungal activity against Candida albicans ATCC 76615 assessed as reduction in fungal growth incubated for 24 hrs by two fold broth dilution method; assay type: functional
Cryptococcus neoformans [8] = assay: Antifungal activity against Cryptococcus neoformans ATCC 32719 assessed as reduction in fungal growth incubated for 24 hrs by two fold broth dilution method; assay type: functional
Aspergillus flavus [9] = assay: Antifungal activity against Aspergillus flavus ATCC 16870 assessed as reduction in fungal growth in presence of sorbitol incubated for 24 hrs by two fold broth dilution method; assay type: functional
Candida albicans [10] = assay: Antifungal activity against micafungin resistant Candida albicans ATCC 76615 assessed as reduction in fungal growth incubated for 24 hrs by two fold broth dilution method; assay type: functional
Aspergillus fumigatus [11] = assay: Antifungal activity against fluconazole resistant Aspergillus fumigatus GIMCC 3.19 assessed as reduction in fungal growth incubated for 24 hrs by two fold broth dilution method; assay type: functional
Candida albicans [12] = assay: Antifungal activity against fluconazole resistant Candida albicans ATCC 76615 assessed as reduction in fungal growth incubated for 24 hrs by two fold broth dilution method; assay type: functional
Aspergillus flavus [13] = assay: Antifungal activity against fluconazole resistant Aspergillus flavus ATCC 16870 assessed as reduction in fungal growth incubated for 24 hrs by two fold broth dilution method; assay type: functional
Cryptococcus neoformans [14] = assay: Antifungal activity against fluconazole resistant Cryptococcus neoformans ATCC 32719 assessed as reduction in fungal growth incubated for 24 hrs by two fold broth dilution method; assay type: functional

In the case of NC(=O)OC[C@H](O)[C@@H](O)[C@H](N)C(=O)N[C@H](C(=O)O)[C@H]1O[C@@H](n2cc(CO)c(=O)[nH]c2=O)[C@H](O)[C@@H]1O [POLYOXIN B], the MIC (Aspergillus fumigatus [1]) is reported as 8 µg/mL (≈ 15.8 µM), the MIC (Aspergillus fumigatus [2]) is reported as 64 µg/mL and the MIC (Candida albicans [3]) is reported as 64 µg/mL. The MIC (Aspergillus flavus [4]) was 8 µg/mL (≈ 15.8 µM), the inhibition (Candida tropicalis) was 86.1% and the IC50 [5] was 90 µM. For the same compound, the MIC (Cryptococcus neoformans [6]) was 128 µg/mL, the MIC (Candida albicans [7]) was 8 µg/mL (≈ 15.8 µM) and the MIC (Cryptococcus neoformans [8]) was 16 µg/mL (≈ 31.5 µM). It also gave an MIC (Aspergillus flavus [9]) of 64 µg/mL.

For Cc1cc(C)cc(NC(=O)/C=C/C(=O)N2CCCC23Cc2ccccc2NC3=O)c1 (stereo not drawn), the MIC (Aspergillus fumigatus [1]) was 32 µg/mL (≈ 79.3 µM), the MIC (Aspergillus flavus [4]) was 32 µg/mL (≈ 79.3 µM) and the inhibition (Candida tropicalis) was 45.7%. The IC50 [5] was 990 µM, the MIC (Candida albicans [7]) was 16 µg/mL (≈ 39.7 µM) and the MIC (Cryptococcus neoformans [8]) was 32 µg/mL (≈ 79.3 µM).

Work on O=C(/C=C/C(=O)N1CCCC12Cc1ccccc1NC2=O)Nc1ccc(Br)cc1 (stereo not drawn) yielded an MIC (Aspergillus fumigatus [1]) of 16 µg/mL (≈ 35.2 µM), an MIC (Aspergillus flavus [4]) of 16 µg/mL (≈ 35.2 µM) and an inhibition (Candida tropicalis) of 56.4%. The IC50 [5] was 520 µM, the MIC (Candida albicans [7]) was 8 µg/mL (≈ 17.6 µM) and the MIC (Cryptococcus neoformans [8]) was 16 µg/mL (≈ 35.2 µM).

For O=C(/C=C/C(=O)N1CCCC12Cc1ccccc1NC2=O)Nc1ccc(Cl)cc1 (stereo not drawn), the MIC (Aspergillus fumigatus [1]) was 4 µg/mL (≈ 9.76 µM), the MIC (Candida albicans [10]) was 128 µg/mL (≈ 312 µM) and the MIC (Aspergillus fumigatus [2]) was 64 µg/mL. It also gave an MIC (Candida albicans [3]) of 32 µg/mL, an MIC (Aspergillus fumigatus [11]) of 64 µg/mL (≈ 156 µM) and an MIC (Aspergillus flavus [4]) of 8 µg/mL (≈ 19.5 µM). The inhibition (Candida tropicalis) was 71.8%, the IC50 [5] was 170 µM and the MIC (Cryptococcus neoformans [6]) was 128 µg/mL. For the same compound, the MIC (Candida albicans [12]) was 128 µg/mL (≈ 312 µM), the MIC (Candida albicans [7]) was 4 µg/mL (≈ 9.76 µM) and the MIC (Cryptococcus neoformans [8]) was 16 µg/mL (≈ 39 µM). For the same compound, the MIC (Aspergillus flavus [13]) was 64 µg/mL (≈ 156 µM), the MIC (Aspergillus flavus [9]) was 64 µg/mL and the MIC (Cryptococcus neoformans [14]) was 128 µg/mL (≈ 312 µM).

COc1ccccc1NC(=O)/C=C/C(=O)N1CCCC12Cc1ccccc1NC2=O (stereo not drawn) gave an MIC (Aspergillus fumigatus [1]) of 8 µg/mL (≈ 19.7 µM), an MIC (Aspergillus flavus [4]) of 16 µg/mL (≈ 39.5 µM) and an inhibition (Candida tropicalis) of 65.2%. The IC50 [5] was 300 µM, the MIC (Candida albicans [7]) was 8 µg/mL (≈ 19.7 µM) and the MIC (Cryptococcus neoformans [8]) was 64 µg/mL (≈ 158 µM).

With CCCCCOc1ccc(-c2cc(-c3ccc(C(=O)N[C@H]4C[C@@H](O)[C@@H](O)NC(=O)[C@@H]5[C@@H](O)[C@@H](C)CN5C(=O)[C@H]([C@H](O)CC(N)=O)NC(=O)[C@H]([C@H](O)[C@@H](O)c5ccc(O)c(OS(=O)(=O)O)c5)NC(=O)[C@@H]5C[C@@H](O)CN5C(=O)[C@H]([C@@H](C)O)NC4=O)cc3)no2)cc1 [MICAFUNGIN] (X1-[Orn(4R-OH,5R-OH)]T[Hyp][hTyr(3S-OH,4S-OH,3'-OSO3H)][Gln(3R-OH)][Pro(3S-OH,4S-Me)]; lactam 1-C) the MIC (Candida albicans [10]) was > 256 µg/mL.

In the case of OC(Cn1cncn1)(Cn1cncn1)c1ccc(F)cc1F [FLUCONAZOLE], the MIC (Aspergillus fumigatus [1]) is reported as 4 µg/mL (≈ 13.1 µM), the MIC (Aspergillus fumigatus [11]) is reported as > 256 µg/mL and the MIC (Aspergillus flavus [4]) is reported as 8 µg/mL (≈ 26.1 µM). The MIC (Candida albicans [12]) was > 256 µg/mL, the MIC (Candida albicans [7]) was 4 µg/mL (≈ 13.1 µM) and the MIC (Cryptococcus neoformans [8]) was 8 µg/mL (≈ 26.1 µM). For the same compound, the MIC (Aspergillus flavus [13]) was > 256 µg/mL and the MIC (Cryptococcus neoformans [14]) was > 256 µg/mL.

O=C(/C=C/C(=O)N1CCCC12Cc1ccccc1NC2=O)Nc1ccc(Cl)cc1Cl (stereo not drawn) gave an MIC (Aspergillus fumigatus [1]) of 8 µg/mL (≈ 18 µM), an MIC (Candida albicans [10]) of 64 µg/mL (≈ 144 µM) and an MIC (Aspergillus fumigatus [2]) of 64 µg/mL. It also gave an MIC (Candida albicans [3]) of 64 µg/mL, an MIC (Aspergillus fumigatus [11]) of 64 µg/mL (≈ 144 µM) and an MIC (Aspergillus flavus [4]) of 8 µg/mL (≈ 18 µM). It also gave an inhibition (Candida tropicalis) of 73.7%, an IC50 [5] of 170 µM and an MIC (Cryptococcus neoformans [6]) of 128 µg/mL. For the same compound, the MIC (Candida albicans [12]) was 64 µg/mL (≈ 144 µM), the MIC (Candida albicans [7]) was 4 µg/mL (≈ 9 µM) and the MIC (Cryptococcus neoformans [8]) was 16 µg/mL (≈ 36 µM). The MIC (Aspergillus flavus [13]) was 64 µg/mL (≈ 144 µM), the MIC (Aspergillus flavus [9]) was 128 µg/mL and the MIC (Cryptococcus neoformans [14]) was 64 µg/mL (≈ 144 µM).

For Cc1cccc(NC(=O)/C=C/C(=O)N2CCCC23Cc2ccccc2NC3=O)c1 (stereo not drawn), the MIC (Aspergillus fumigatus [1]) was 64 µg/mL (≈ 164 µM), the MIC (Aspergillus flavus [4]) was 32 µg/mL (≈ 82.2 µM) and the inhibition (Candida tropicalis) was 44.1%. For the same compound, the IC50 [5] was 1210 µM, the MIC (Candida albicans [7]) was 16 µg/mL (≈ 41.1 µM) and the MIC (Cryptococcus neoformans [8]) was 128 µg/mL (≈ 329 µM).
